Source: patent US12404242B2, “Compositions and methods for making and using small molecules in the treatment of cancer” (Reglagene, Inc., priority 2021, dated 2025)

Experiments:
Type in all cases: cell-based, human
Conditions in all cases: 72 hours of treatment
LNCaP cells = experiment: Cell viability (AlamarBlue), LNCaP prostate cancer cells; parameters: key to EC50 (μM) in LNCaP cells: Inactive: less than 50% inhibition at the highest concentration tested at 50 μM
Procedure: (§1) In another exemplary method, half maximal effective concentration (EC50) was determined for some compounds and their isomers as disclosed herein in a variety of human cancer cell lines. In brief, cells from two prostate cancer cell lines (LNCaP, 22RV1), one glioblastoma cell line (U87), one breast cancer cell line (MCF7), a glioma cell line (LN18), a normal prostate cell line (RWPE1), and a glioblastoma cell line (T98G) were plated in a multi-well plate. After 24 hours, one of the compounds herein was added to the well at increasing concentrations. After 72 hours of treatment, cell viability was assessed using AlamrBlue® (Invitrogen) and fluorescence was read using the CLARIOstar Plus Multilabel Plate Reader (BMG Labtech). Samples were normalized to no treatment controls. EC50 values were determined using GraphPad Prism.

22RV1 cells = experiment: Cell viability (AlamarBlue), 22RV1 prostate cancer cells; parameters: key to EC50 (μM) in 22RV1 cells: Inactive: less than 50% inhibition at the highest concentration tested at 50 μM
Procedure: as §1

U87 cells = experiment: Cell viability (AlamarBlue), U87 glioblastoma cells; parameters: key to EC50 (μM) in U87 cells: Inactive: less than 50% inhibition at the highest concentration tested at 50 μM
Procedure: as §1

Compound | EC50 (μM) in LNCaP cells (LNCaP cells) | EC50 (μM) in 22RV1 cells (22RV1 cells) | EC50 (U87 cells; Homo sapiens, U-87 MG, 72 h) | EC50 (μM) in U87 cells (U87 cells) | also measured
Cc1cc(NC(=O)NC(=O)C2CCOC2)ccc1Oc1ncc(Cl)cn1 (racemic) [Compound 5, rac-1-{4-[(5-chloropyrimidin-2-yl)oxy]-3-methylphenyl}-3-[(3R)-oxolane-3-carbonyl]urea] | Inactive | Inactive | – | – | –
COC1CCC(C(=O)NC(=O)Nc2ccc(Oc3ncc(C)cn3)c(C)c2)CC1 (single isomer, unassigned) [Compound 27A, 4-methoxy-N-((3-methyl-4-((5-methylpyrimidin-2-yl)oxy)phenyl)carbamoyl)cyclohexane-1-carboxamide] | – | – | – | – | EC50 (LNCaP cells): 1.3 µM; EC50 (22RV1 cells): 2.8 µM; EC50 (U87 cells): 2.1 µM
COC1CCC(C(=O)NC(=O)Nc2ccc(Oc3ncc(C)cn3)c(C)c2)CC1 (single isomer, unassigned) [Compound 27B, 4-methoxy-N-((3-methyl-4-((5-methylpyrimidin-2-yl)oxy)phenyl)carbamoyl)cyclohexane-1-carboxamide] | – | – | – | – | EC50 (LNCaP cells): 9.8 µM; EC50 (22RV1 cells): 25 µM; EC50 (U87 cells): 23.3 µM
COC1CCC(C(=O)NC(=O)Nc2ccc(Oc3ccc(C(C)C)cn3)c(C)c2)CC1 (single isomer, unassigned) [Compound 34A, N-((4-((5-isopropylpyridin-2-yl)oxy)-3-methylphenyl)carbamoyl)-4-methoxycyclohexane-1-carboxamide] | – | – | 5.5 µM | – | EC50 (LNCaP cells; Homo sapiens, LNCaP, 72 h): 1.2 µM; EC50 (22RV1 cells; Homo sapiens, 22Rv1, 72 h): 5.9 µM
COC1CCC(C(=O)NC(=O)Nc2ccc(Oc3ccc(C(C)C)cn3)c(C)c2)CC1 (single isomer, unassigned) [Compound 34B, N-((4-((5-isopropylpyridin-2-yl)oxy)-3-methylphenyl)carbamoyl)-4-methoxycyclohexane-1-carboxamide] | Inactive | Inactive | – | Inactive | –
Cc1cc(NC(=O)NC(=O)C2CCCC2)ccc1Oc1ncc(Cl)cn1 [Compound 3, 1-{4-[(5-chloropyrimidin-2-yl)oxy]-3-methylphenyl}-3-cyclopentanecarbonylurea] | Inactive | Inactive | – | – | –
Cc1cc(NC(=O)NC(=O)C2CCOCC2)ccc1Oc1ncc(Cl)cn1 [Compound 4, 3-{4-[(5-chloropyrimidin-2-yl)oxy]-3-methylphenyl}-1-(oxane-4-carbonyl)urea] | Inactive | Inactive | – | – | –
COC1CCC(C(=O)NC(=O)Nc2ccc(Oc3nccn3C)c(C)c2)CC1 (centres unmarked) [Compound 28, 1-(4-methoxycyclohexanecarbonyl)-3-{3-methyl-4-[(1-methyl-1H-imidazol-2-yl)oxy]phenyl}urea] | Inactive | Inactive | – | Inactive | –
COC1CCC(C(=O)NC(=O)Nc2ccc(Oc3ncc(C(F)(F)F)cn3)c(C)c2)CC1 (centres unmarked) [Compound 29, 1-(4-methoxycyclohexanecarbonyl)-3-(3-methyl-4-{[5-(trifluoromethyl)pyrimidin-2-yl)oxy}phenyl)urea] | – | – | 5.3 µM | – | EC50 (LNCaP cells; Homo sapiens, LNCaP, 72 h): 6.5 µM; EC50 (22RV1 cells; Homo sapiens, 22Rv1, 72 h): 4.7 µM
COC1CCC(C(=O)NC(=O)Nc2ccc(Oc3ncc(C(C)C)cn3)c(C)c2)CC1 (centres unmarked) [Compound 30, 1-(4-methoxycyclohexanecarbonyl)-3-(3-methyl-4-{[5-(propan-2-yl)pyrimidin-2-yl)oxy}phenyl)urea] | – | – | 12.2 µM | – | EC50 (LNCaP cells; Homo sapiens, LNCaP, 72 h): 8.5 µM; EC50 (22RV1 cells; Homo sapiens, 22Rv1, 72 h): 14.4 µM
COC1CCC(C(=O)NC(=O)Nc2ccc(Oc3ccc(C)cn3)c(C)c2)CC1 (centres unmarked) [Compound 32, 1-(4-methoxycyclohexanecarbonyl)-3-{3-methyl-4-[(5-methylpyridin-2-yl)oxy]phenyl}urea] | – | – | – | Inactive | EC50 (LNCaP cells; Homo sapiens, LNCaP, 72 h): 34 µM; EC50 (22RV1 cells; Homo sapiens, 22Rv1, 72 h): 35 µM
COC1CCC(C(=O)NC(=O)Nc2ccc(Oc3ccc(C(F)(F)F)cn3)c(C)c2)CC1 (centres unmarked) [Compound 33, 4-methoxy-N-((3-methyl-4-((5-(trifluoromethyl)pyridin-2-yl)oxy)phenyl)carbamoyl)cyclohexane-1-carboxamide] | Inactive | Inactive | – | Inactive | –
COC1CC(C(=O)NC(=O)Nc2ccc(Oc3cnc(N4CCN(C)CC4)nc3)c(C)c2)C1 (centres unmarked) [Compound 35, 3-methoxy-N-((3-methyl-4-((2-(4-methylpiperazin-1-yl)pyrimidin-5-yl)oxy)phenyl)carbamoyl)cyclobutane-1-carboxamide] | Inactive | Inactive | 49 µM | – | –
COC1CCC(C(=O)NC(=O)Nc2ccc(Oc3cnc(N4CCN(C)CC4)nc3)c(C)c2)CC1 (centres unmarked) [Compound 36, 4-methoxy-N-((3-methyl-4-((2-(4-methylpiperazin-1-yl)pyrimidin-5-yl)oxy)phenyl)carbamoyl)cyclohexane-1-carboxamide] | – | – | 31 µM | – | EC50 (LNCaP cells; Homo sapiens, LNCaP, 72 h): 34 µM; EC50 (22RV1 cells; Homo sapiens, 22Rv1, 72 h): 34 µM
O=C(NC(=O)C1CCC(OCC2CC2)CC1)Nc1ccc(Oc2ncc(Cl)cn2)c(F)c1 (centres unmarked) [Compound 37, N-((4-((5-chloropyrimidin-2-yl)oxy)-3-fluorophenyl)carbamoyl)-4-(cyclopropylmethoxy)cyclohexane-1-carboxamide] | Inactive | Inactive | – | Inactive | –
Cc1cc(NC(=O)NC(=O)C2CCC(OCC3CC3)CC2)ccc1Oc1ncc(Cl)cn1 (centres unmarked) [Compound 38, N-((4-((5-chloropyrimidin-2-yl)oxy)-3-methylphenyl)carbamoyl)-4-(cyclopropylmethoxy)cyclohexane-1-carboxamide] | Inactive | Inactive | – | Inactive | –
Cc1cc(NC(=O)NC(=O)C2CC(OCC3CC3)C2)ccc1Oc1nccs1 (centres unmarked) [Compound 39, 3-(cyclopropylmethoxy)-N-((3-methyl-4-(thiazol-2-yloxy)phenyl)carbamoyl)cyclobutane-1-carboxamide] | Inactive | Inactive | – | Inactive | –
COC1(C(=O)NC(=O)Nc2ccc(Oc3ccc(Cl)cn3)c(C)c2)CC1 [Compound 65, N-((4-((5-chloropyridin-2-yl)oxy)-3-methylphenyl)carbamoyl)-1-methoxycyclopropane-1-carboxamide] | – | Inactive | – | Inactive | –
COC1CC(C(=O)NC(=O)Nc2cc(C)c(Oc3ccc(F)cn3)c(F)c2)C1 (centres unmarked) [Compound 72, N-((3-fluoro-4-((5-fluoropyridin-2-yl)oxy)-5-methylphenyl)carbamoyl)-3-methoxycyclobutane-1-carboxamide] | – | – | 1.1 µM | – | EC50 (22RV1 cells; Homo sapiens, 22Rv1, 72 h): 0.91 µM
COC1CC(C(=O)NC(=O)Nc2cc(C)c(Oc3ncccn3)c(F)c2)C1 (centres unmarked) [Compound 74, N-((3-fluoro-5-methyl-4-(pyrimidin-2-yloxy)phenyl)carbamoyl)-3-methoxycyclobutane-1-carboxamide] | – | – | 2.5 µM | – | EC50 (22RV1 cells; Homo sapiens, 22Rv1, 72 h): 1.65 µM
COC1CCC(C(=O)NC(=O)Nc2ccc(Oc3ccc(C4CC4)cn3)c(C)c2)CC1 (centres unmarked) [Compound 75, N-((4-((5-cyclopropylpyridin-2-yl)oxy)-3-methylphenyl)carbamoyl)-4-methoxycyclohexane-1-carboxamide] | – | – | – | Inactive | –
COC1CC(C(=O)NC(=O)Nc2cc(C)c(Oc3nccs3)c(F)c2)C1 (centres unmarked) [Compound 77, N-((3-fluoro-5-methyl-4-(thiazol-2-yloxy)phenyl)carbamoyl)-3-methoxycyclobutanecarboxamide] | – | – | 22 µM | – | –
COC1CC(C)(C(=O)NC(=O)Nc2ccc(Oc3ccc(Cl)cn3)c(C)c2)C1 (centres unmarked) [Compound 79, N-((4-((5-chloropyridin-2-yl)oxy)-3-methylphenyl)carbamoyl)-3-methoxy-1-methylcyclobutane-1-carboxamide] | – | – | – | Inactive | –
Cc1cc(NC(=O)NC(=O)C2CC(O)C2)ccc1Oc1ccc(Cl)cn1 (centres unmarked) [Compound 80, N-((4-((5-chloropyridin-2-yl)oxy)-3-methylphenyl)carbamoyl)-3-hydroxycyclobutane-1-carboxamide] | – | – | – | Inactive | –
COC1CC1C(=O)NC(=O)Nc1ccc(Oc2ncc(Cl)cn2)c(C)c1 (centres unmarked) [Compound 81, N-((4-((5-chloropyrimidin-2-yl)oxy)-3-methylphenyl)carbamoyl)-2-methoxycyclopropane-1-carboxamide] | – | – | – | Inactive | –
COC1CC1C(=O)NC(=O)Nc1ccc(Oc2ccc(Cl)cn2)c(C)c1 (centres unmarked) [Compound 82, N-((4-((5-chloropyridin-2-yl)oxy)-3-methylphenyl)carbamoyl)-2-methoxycyclopropane-1-carboxamide] | – | – | – | Inactive | –
COC12CC(C(=O)NC(=O)Nc3ccc(Oc4nccs4)c(C)c3)(C1)C2 [Compound 83, 3-methoxy-N-((3-methyl-4-(thiazol-2-yloxy)phenyl)carbamoyl)bicyclo[1.1.1]pentane-1-carboxamide] | – | – | 0.33 µM | – | –
COC12CC(C(=O)NC(=O)Nc3ccc(Oc4ccc(F)cn4)c(C)c3)(C1)C2 [Compound 89, N-((4-((5-fluoropyridin-2-yl)oxy)-3-methylphenyl)carbamoyl)-3-methoxybicyclo[1.1.1]pentane-1-carboxamide] | – | – | 0.2 µM | – | –
